Source: BigSolDB 2.1

CCOc1ccccc1C(N)=O
solubility (mole fraction)
Conditions | 288.15 K | 293.15 K | 298.15 K | 303.15 K | 308.15 K | 313.15 K | 318.15 K | 323.15 K
in acetonitrile | 0.00524 | 0.0075 | 0.0101 | 0.0132 | 0.0176 | 0.0231 | 0.0302 | 0.0398
in ethanol | 0.011 | 0.0137 | 0.0171 | 0.0211 | 0.0265 | 0.0327 | 0.0402 | 0.0486
in ethyl acetate | 0.00336 | 0.00459 | 0.00639 | 0.00835 | 0.0112 | 0.0147 | 0.0196 | 0.0251
in isobutanol | 0.00816 | 0.00984 | 0.0126 | 0.0162 | 0.0208 | 0.0273 | 0.0354 | 0.0454
in methanol | 0.0154 | 0.018 | 0.0225 | 0.027 | 0.0328 | 0.0402 | 0.0492 | 0.0597
in n-propanol | 0.00832 | 0.0113 | 0.0142 | 0.0179 | 0.0227 | 0.0301 | 0.0389 | 0.0502
